Patent US12110258B2, “Coated fertilizer containing urease inhibitor” (SABIC Agri-Nutrients Company, priority 2018, dated 2024)

Assay: Inhibitor Stability Test (HPLC, non-degraded NBTPT remaining after storage)
Details: 2 weeks, RT (23 to 26° C.)
Protocol: Inhibitor Stability Test: The stability test is used to indicate changes in stability of the urease inhibitor in different coated fertilizers or coating compositions under multiple conditions for different amounts of time. HPLC analysis was used to determine the amount of non-degraded inhibitor remaining at the end of the testing periods. Briefly, for the HPLC analysis procedure, approximately 4 grams of a sample and 20 ml of diluent was added into a 50 ml polypropylene tube. The sample was sonicated for 30 minutes with intermediate shaking and then vortexed for 1 hour using a vortex shaker. After vortexing, the sample was filtered using a 0.45μ syringe filter into a HPLC vial and injected into the HPLC.
Chromatographic Conditions:
• Column: Phenomenex, Luna 5u Pnenyl hexyl 250*4.6, 5μ • Column oven temperature: 350° C. • Injection Vol.: 5 μL • Flow rate: 1.00 mL/min • Mobile Phase: Reservoir A—Milli Q Water; Reservoir C—Acetonitrile; Isocratic—Milli Q water/Acetonitrile (80:20% v/v) • Run Time: 15 minutes • Wavelength: 207 nm
Calculation: Calibration standards were injected in duplicate and the calibration curve for NBTPT was constructed by plotting the concentration (mg/mL) in X-axis and Instrument response (area) in the Y-axis. The unknown concentrations of NBTPT in the samples were calculated using the formula y=mx+c with the appropriate dilution factor applied. […]

## CCCCNP(N)(N)=S [compound 4, N-(n-butyl) thiophosphoric triamide]
  % NBTPT Degradation: 0%
